Experimental findings from PubChem BioAssay (NCI) are described below.

Broadly, the TGI is the concentration at which net growth stops. In general, GI50 refers to the concentration at which growth is held to half of that of the control.

Test systems include UACC-257 melanoma; BT-549 breast; A498 renal; U251 CNS; MDA-MB-231 breast; PC-3 prostate; NCI-H23 lung; K-562 leukemia; MDA-MB-435; TK-10 renal.
Experiment in all cases: DTP human tumour cell line panel, 48 h

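A five-concentration, 48-hour dose response in 96-well plates underlies each endpoint, interpolated linearly between surrounding concentrations. Abbreviation: GI50, concentration required for 50% inhibition of growth. TGI: concentration producing complete growth inhibition.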

In the case of `COc1ccc(Nc2nc3ccc(C(F)(F)F)cc3nc2C(=O)O)cc1OC`, the TGI in the experiment on UACC-257 melanoma was more than 100 µM; in the experiment with BT-549 breast, 71.5 µM; in the experiment with A498 renal it was 86.6 µM; in the experiment with U251 CNS, more than 100 µM; in the experiment with MDA-MB-231 breast, more than 100 µM; with PC-3 prostate, 94.6 µM. Also, the TGI in the experiment with NCI-H23 lung was 58.6 µM; in the experiment with K-562 leukemia it was more than 100 µM; in the experiment with MDA-MB-435 it was 82.5 µM.
For the compound `CC(=O)NS(=O)(=O)c1ccc(NC(=O)c2c3ccccc3nc3ccccc23)cc1`, the TGI with UACC-257 melanoma, in the experiment with BT-549 breast, in the experiment with A498 renal, in the experiment with U251 CNS, in the experiment on MDA-MB-231 breast and with PC-3 prostate was more than 100 µM each time. The TGI in the experiment on TK-10 renal, in the experiment on NCI-H23 lung, in the experiment on K-562 leukemia and in the experiment on MDA-MB-435 was more than 100 µM throughout.
Turning to `C=C1[C@@H](O)C[C@@]23CC[C@@H]4[C@@]5(C)CC[C@@H](OC(C)=O)C(C)(C)[C@@H]5C[C@@H](OC5OC(COC(C)=O)C(O)C(O)C5O)[C@@]4(C)C2=CC[C@H]3[C@H]1C` (some centres not stated), the TGI in the experiment with UACC-257 melanoma was 26 µM; in the experiment on BT-549 breast, 21.4 µM; with A498 renal, 23.8 µM; in the experiment with U251 CNS, 12.5 µM; in the experiment on MDA-MB-231 breast, 21.4 µM; in the experiment with PC-3 prostate, 13.9 µM. The TGI with TK-10 renal came out at 21 µM; in the experiment on NCI-H23 lung it was 26.5 µM; in the experiment with K-562 leukemia, 10.6 µM; in the experiment with MDA-MB-435 it was 15.3 µM.
Consider `O=[N+]([O-])C(=C(N1CCCCC1)N1CCCCC1)/C(Cl)=C(\Cl)Br`, for which the TGI with UACC-257 melanoma is 61.6 µM; in the experiment on BT-549 breast, more than 100 µM; with A498 renal it was 42.2 µM; with U251 CNS it was 56.3 µM; in the experiment on MDA-MB-231 breast, 70.6 µM; in the experiment on PC-3 prostate, 60.3 µM. Moreover, the TGI in the experiment on TK-10 renal is 72 µM; in the experiment on NCI-H23 lung, 41.2 µM; in the experiment on K-562 leukemia, 46.2 µM; in the experiment on MDA-MB-435, 61.7 µM.
On to `Cc1cn2c(/C=C3/C(=O)Nc4cccc(Cl)c43)c(Cl)nc2s1`, for which the TGI was more than 100 µM with UACC-257 melanoma; more than 100 µM with BT-549 breast; more than 100 µM in the experiment with A498 renal; 27.3 µM in the experiment on U251 CNS; more than 100 µM in the experiment with MDA-MB-231 breast; more than 100 µM in the experiment with PC-3 prostate. For the same compound, the TGI is 37.4 µM in the experiment with TK-10 renal, more than 100 µM in the experiment on NCI-H23 lung, more than 100 µM in the experiment on K-562 leukemia and more than 100 µM with MDA-MB-435.
For `CC1(C)C(c2ccccc2)=[N+]([O-])C(C)(C)N1O`, the TGI with UACC-257 melanoma, with BT-549 breast, in the experiment on A498 renal, in the experiment with U251 CNS, in the experiment on MDA-MB-231 breast and with PC-3 prostate was more than 10 µM throughout. Also, the TGI in the experiment with TK-10 renal, with NCI-H23 lung and in the experiment on MDA-MB-435 was more than 10 µM in each case.
Turning to `O=C1CCC(=Nc2ccc(Cl)cc2)N1C(=O)COc1ccc(OCC(=O)N2C(=O)CSC2=Nc2ccc(Cl)cc2)cc1`, the TGI with UACC-257 melanoma, in the experiment with BT-549 breast, in the experiment on A498 renal, in the experiment with U251 CNS, in the experiment on MDA-MB-231 breast and with PC-3 prostate was more than 100 µM each time. Also, the TGI in the experiment on TK-10 renal, with NCI-H23 lung, with K-562 leukemia and in the experiment with MDA-MB-435 was more than 100 µM each time.
As to `Cc1cc2c(C)cc(=O)[nH]c2cc1N`, the TGI in the experiment with UACC-257 melanoma, with BT-549 breast, with A498 renal, in the experiment with U251 CNS, in the experiment on MDA-MB-231 breast and in the experiment on PC-3 prostate was more than 100 µM each time. Further, the TGI in the experiment on NCI-H23 lung, in the experiment on K-562 leukemia and with MDA-MB-435 was more than 100 µM each time.
As for `CCC[C@H]1C(=O)N=C(N)N1C(=O)OCc1ccccc1`, the TGI in the experiment with UACC-257 melanoma, with BT-549 breast, with A498 renal, in the experiment on U251 CNS, in the experiment on MDA-MB-231 breast and with PC-3 prostate was more than 100 µM each time. Besides, the TGI in the experiment with TK-10 renal, with NCI-H23 lung, in the experiment with K-562 leukemia and in the experiment with MDA-MB-435 was more than 100 µM each time.
`O=C(O)C1CC(c2ccc(F)cc2)=Nc2ccc(F)cc2S1` (configuration not stated): the TGI in the experiment with UACC-257 melanoma, in the experiment with BT-549 breast, in the experiment on A498 renal, with MDA-MB-231 breast, in the experiment on PC-3 prostate and in the experiment with TK-10 renal was more than 100 µM each time. In addition, the TGI with NCI-H23 lung, with K-562 leukemia and in the experiment on MDA-MB-435 was more than 100 µM each time.
With `COc1cccc(-c2cc(=O)c3c(C)cc(C)nc3[nH]2)c1`, the TGI with BT-549 breast was more than 100 µM; with A498 renal it was 10.8 µM; with U251 CNS, more than 88.6 µM; in the experiment on MDA-MB-231 breast it was more than 100 µM; with PC-3 prostate it was more than 100 µM; with TK-10 renal, more than 100 µM. The values for the TGI in the experiment on NCI-H23 lung, in the experiment with K-562 leukemia and in the experiment on MDA-MB-435 were more than 38.4 µM, 1.41 µM and 0.398 µM, respectively.
In the case of `c1ccc2c(c1)[nH]c1nc3cc(-c4ccc5nc6c(nc5c4)[nH]c4ccccc46)ccc3nc12`, the TGI was more than 100 µM in the experiment on UACC-257 melanoma; more than 100 µM with BT-549 breast; more than 100 µM in the experiment with A498 renal; more than 100 µM in the experiment on U251 CNS; 97 µM in the experiment on MDA-MB-231 breast; more than 100 µM in the experiment with PC-3 prostate. Moreover, the TGI in the experiment with TK-10 renal, in the experiment on NCI-H23 lung and in the experiment on MDA-MB-435 was more than 100 µM each time.
Take `CCCCN1CCN(c2ccc3nc(-c4ccc5nc(-c6ccc(C(F)(F)F)cc6)[nH]c5c4)[nH]c3c2)CC1`: the GI50 in the experiment on UACC-257 melanoma was 1.78 µM; in the experiment with BT-549 breast it was 1.61 µM; in the experiment with A498 renal, 1.78 µM; in the experiment with U251 CNS, 1.59 µM; in the experiment on MDA-MB-231 breast, 1.47 µM; in the experiment on PC-3 prostate, 0.962 µM. In addition, the GI50 with TK-10 renal was 2.21 µM; in the experiment on NCI-H23 lung, 1.68 µM; with MDA-MB-435 it was 1.59 µM. For the same compound, the TGI in the experiment with UACC-257 melanoma was determined as 3.41 µM; in the experiment on BT-549 breast, 3.1 µM; in the experiment on A498 renal, 3.45 µM; in the experiment with U251 CNS, 2.96 µM; in the experiment on MDA-MB-231 breast it was 2.94 µM; in the experiment with PC-3 prostate, 2.31 µM. Moreover, the TGI is 3.68 µM in the experiment with TK-10 renal, 3.42 µM with NCI-H23 lung and 3.01 µM with MDA-MB-435.
